Experimental findings from the METLIN SMRT retention time set (Domingo-Almenara et al. 2019) are described below.

This data set in a line: gradient 5% acetonitrile 3 min, to 50% in 2 min, to 85% in 15 min, held 3 min, 100 µL/min. The following applies: column: Zorbax Extend-C18 2.1 x 50 mm; eluents: water / acetonitrile, 0.1% formic acid. In a few lines:
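In both positive and negative ionization mode, a quadrupole time-of-flight mass spectrometer coupled to HPLC analyzed pure standards run in mixtures of ~100 molecules. The Zorbax Extend-C18 column (2.1 × 50 mm, 1.8 μm) was operated at 100 μL/min with water and acetonitrile, each containing 0.1% formic acid. The dead volume was 40 μL and the dwell volume 900 μL. Retention time came from adduct peaks that were computationally picked and individually inspected by hand.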
For `CCC(C)NC(=O)N1CCCN(C2=NS(=O)(=O)C(c3ccc(C)c(C)c3)=C2C)CC1` (stereo not given), the RP-LC retention time turned out to be 843 s. The figure for `O=C(Nc1nc(-c2cccnc2)cs1)C1CN(c2nc3ccccc3s2)C1` is 592 s; for `CN(CCc1noc(-c2ccc(C(=O)N3CCCC3)cc2)n1)C(=O)Cc1ccc(Cl)cc1` it is 816 s.

In turn, `CCn1cc(-c2ccc(F)cc2)cc1C(=O)O` had an RP-LC retention time of 861 s. The compound `CCN(C(=O)c1ccco1)c1nc(-c2ccc(Br)cc2)cs1` came in with an RP-LC retention time of 1320 s. Turning to `NC1=C(Br)C(=O)c2ncccc2C1=O`, the RP-LC retention time worked out at 599 s. The figure for `COc1cccc(NC2=NS(=O)(=O)c3ccccc32)c1` is 732 s. Compound `COc1ccc(NC(=O)N2[C@H]3CC[C@@H]2c2cnc(-c4ccccc4)nc2C3)cc1OC` came in with an RP-LC retention time of 838 s. As to `CCOC(=O)Nc1nc(CC(=O)NCCc2c[nH]c3ccccc23)cs1`, the RP-LC retention time was determined as 680 s. Compound `Cn1cc(C(=O)NC2CCCCC2)c2cccnc21` showed an RP-LC retention time of 726 s.

`CCCn1ccc2oc(C)c(C(=O)N3CCN(CC(C)C)CC3)c2c1=O` showed an RP-LC retention time of 575 s. In the case of `COc1ccccc1-c1ccc(=O)n(Cc2nc(-c3ccc(F)cc3)no2)n1`, the RP-LC retention time worked out at 995 s.

In turn, `CCc1nc(NC(=O)C2CC(=O)N(c3n[nH]c4cccc(F)c34)C2)sc1C` (stereo not given) displayed an RP-LC retention time of 740 s. `CCOc1ccc(-c2nc(-c3ccc4nnn(C)c4c3)no2)cc1` showed an RP-LC retention time of 1070 s. As for `Oc1cccc(-c2nc3cnccn3c2Nc2ccc(Br)cc2)c1`, the RP-LC retention time was 1020 s. `Cc1cc(C(=O)NC(C)C)c2cc(Cl)ccc2n1` registered an RP-LC retention time of 718 s. The figure for `CCN1C(=O)c2cc(C(=O)NCc3ccc(N(C)C)cc3)nn2CC1(C)C(=O)NC1CCCC1` (stereo not given) is 570 s; for `CCOC(=O)CNC(=O)NCc1cccn1Cc1ccc(F)cc1` it is 772 s. With `Cc1cc(C)c(NC(=O)Cn2nc3cc(C)nc(-c4ccccc4)n3c2=O)c(C)c1`, the RP-LC retention time is 867 s. The figure for `Cc1nc2cc(-c3noc(-c4ccc(Br)cc4)n3)ccc2o1` is 1230 s; for `COC(=O)c1cccc(Nc2c(-c3ccc(F)cc3)nc3cnc(Br)cn23)c1` it is 980 s; for `CC1CCCN(CCCNC(=O)CCC(=O)N2CCc3c(c(C(=O)N4CCCCC4)nn3C)C2)C1` (stereo not given) it is 594 s. With `CCOc1cc2c(cc1OCC)C1C(C(=O)NCCN3CCOCC3)c3ccccc3C(=O)N1CC2` (stereo not given), the RP-LC retention time stood at 615 s. The compound `CC(C)Cn1cc(S(=O)(=O)N2CCN(c3ccccc3Cl)CC2)c2cccnc21` returned an RP-LC retention time of 1220 s. `Cc1ccc(C)c(-c2cc3c(=O)n(Cc4nc(-c5ccc(Br)cc5)no4)ncn3n2)c1` came in with an RP-LC retention time of 1320 s. With `O=C(Cc1ccsc1)NCCn1c(=O)n(Cc2ccc(F)cc2)c2cccnc21`, the RP-LC retention time came out at 781 s. In the case of `Cc1ccc(C)c(NC(=O)N2CCCC(C)(C(=O)NCc3ccccc3)C2)c1` (stereo not given), the RP-LC retention time was 967 s. For the compound `Cc1ccc(C2CC(=O)c3cnc(N4CCN(c5ccccn5)CC4)nc3C2)cc1` (stereo not given), the RP-LC retention time amounted to 727 s. For `Cn1cnc(S(=O)(=O)N2CCC(c3noc(-c4cccnc4)n3)C2)c1` (stereo not given), the RP-LC retention time came out at 627 s. `CSc1cccc(NC(=O)C2CCN(C(=O)c3ncn4c3COC(c3ccc(F)cc3)C4)CC2)c1` (stereo not given) displayed an RP-LC retention time of 849 s. `COc1ccc(-c2noc(-c3cccnc3N3CCN(c4ccccc4OC)CC3)n2)cc1` yielded an RP-LC retention time of 1150 s.

For the compound `CCN1CCCn2nc(C3CCN(S(=O)(=O)c4ccc(C)c(C)c4)CC3)cc2C1=O`, the RP-LC retention time came to 891 s. For `CCc1cccc(NC(=O)Cn2c(=O)n(-c3ccc(F)cc3)c(=O)c3c2cc(C)n3C)c1`, the RP-LC retention time stood at 914 s.

As to `O=C(c1cc(-c2ccccc2)n[nH]1)N1CCN(c2ccc(N3CCOCC3)nn2)CC1`, the RP-LC retention time came to 595 s. The figure for `O=C(NCc1ccc(F)cc1)C1CCc2nc(N3CCOCC3)ncc2C1` (stereo not given) is 808 s; for `CN(Cc1ccc(F)cc1Cl)C1CCc2nnc(C3CCOCC3)n2CC1` (stereo not given) it is 561 s. The figure for `CCOc1ccc(NC(=O)N(Cc2ccc3c(c2)OCO3)C2CCN(CC)CC2)cc1` is 661 s; for `Cc1cc(F)ccc1NC(=O)C1CCc2nc(N3CCOCC3)ncc2C1` (stereo not given) it is 735 s; for `COc1ccc2c(c1)c(CN1CCC(C(=O)NC3CCCCCC3)CC1)cn2C` it is 712 s. Compound `COC(=O)c1c(C)[nH]c(C(=O)N2CCC(CC(=O)N3CCN(c4ccccn4)CC3)CC2)c1C` displayed an RP-LC retention time of 606 s. The figure for `CCOC(=O)CNC(=O)Nc1cccc(-c2nnc(Cc3ccc(C)cc3)o2)c1` is 867 s; for `Cc1nc(CNC(=O)c2ccc(-c3noc(C4CC4)n3)cc2)no1` it is 717 s.

`CCc1nc(OCC(=O)Nc2cc(F)ccc2F)c2ccccc2n1` came in with an RP-LC retention time of 854 s.

With `CO/N=C1/C=C(C)C(=O)C(C)=C1C`, the RP-LC retention time amounted to 1040 s.

With `CC(C)c1cc(N2CCN(C(=O)C3CC3)CC2)nc2nncn12`, the RP-LC retention time worked out at 586 s. `Cc1ccc(-c2nc(-c3ccc4nnc(C)n4c3)no2)cc1C`: the RP-LC retention time was 1130 s. As for `Cn1c(NC(=O)c2ccc(N3C(=O)CCC3=O)cc2)cc(=O)n(C)c1=O`, the RP-LC retention time is 565 s. `CCOC(=O)c1ccccc1NC(=O)Cn1c(=O)n(-c2cccc(C)c2)c(=O)c2c1cc(C)n2C` came in with an RP-LC retention time of 966 s. On to `Cc1cccc(S(=O)(=O)N2C[C@H]3CN(S(=O)(=O)c4ccc(C#N)cc4)C[C@@H](C2)O3)c1`, for which the RP-LC retention time was 945 s.

`O=C(CN1c2ccc(F)cc2-c2ccccc2S1(=O)=O)N1CCN(Cc2ccccc2)CC1` displayed an RP-LC retention time of 711 s. The figure for `CC(=O)N1CCN(c2nc(C)cc(N3CCCC3)n2)CC1` is 580 s; for `Cc1cc(C)cc(C(=O)N2c3ccccc3CC2c2nc(C3CC3)no2)c1` (stereo not given) it is 1130 s; for `CNC(=O)c1ccc(-n2cccc2)nc1` it is 645 s. For `O=C(c1cn(-c2cc(N3CCCCC3)ncn2)cn1)N1CCCC1`, the RP-LC retention time was 772 s. The same measure for `CC(=O)c1c(C)oc2ccc(NS(=O)(=O)c3cccc([N+](=O)[O-])c3)cc12`: 822 s; for `O=[N+]([O-])c1ccccc1S(=O)(=O)Nc1ccc(N2CCOCC2)cc1`: 749 s; for `O=S(=O)(c1ccccc1Cl)N1CC(F)(F)C[C@H]1COc1cccnc1`: 731 s. The compound `CCCN1CC[C@@H]2c3cc(O)ccc3CC[C@@H]21` yielded an RP-LC retention time of 593 s.

Turning to `O=C1NCCCn2cc(S(=O)(=O)NC3CCCCCC3)cc21`, the RP-LC retention time amounted to 688 s. `NC(=O)c1cccc(Nc2c(-c3ccc(Cl)cc3)nc3cnccn23)c1`: the RP-LC retention time stood at 685 s.

With `CC(NC(=O)c1ccco1)c1nc(-c2ccc3c(c2)ncn3C2CCCC2)no1` (stereo not given), the RP-LC retention time was 674 s. The same measure for `COc1ccc(CN2C=C(C(=O)OCc3noc(-c4ccccc4)n3)C(C)=NS2(=O)=O)cc1`: 1100 s. The figure for `COC(=O)CSc1nnc(CNC(=O)c2ccccc2F)n1Cc1ccccc1` is 683 s; for `Cc1cc(=O)oc2c3c(cc(OCC(=O)N[C@H](CC(C)C)C(=O)O)c12)OC(C)(C)CC3` it is 892 s.

Take `Cc1ccc(CNC(=O)C2(C)CN(S(C)(=O)=O)CC(=O)N2c2ccc(C)c(Cl)c2)cc1` (stereo not given): the RP-LC retention time is 874 s. Regarding `Cc1ccc(-c2nnc(-c3nc(NCc4cccnc4)c4ccccc4n3)o2)cc1`, the RP-LC retention time worked out at 676 s. Regarding `O=C(Cn1cnc2nc(N3CCC(C(=O)NC4CC4)CC3)sc2c1=O)NC1CCCC1`, the RP-LC retention time was 609 s.

Compound `CN1CCC(NC(=O)c2ncoc2-c2ccccc2)CC1` showed an RP-LC retention time of 602 s. In turn, `OCCOCCNCc1ccc(-c2ccc(F)cc2)o1` showed an RP-LC retention time of 620 s. The same measure for `Cc1ccc(S(=O)(=O)Cc2nc(-c3ccc4c(c3)OCO4)no2)cc1`: 951 s; for `O=C(Nc1nc(-c2ccc(Br)s2)cs1)c1ccc([N+](=O)[O-])s1`: 1120 s; for `COc1ccc(C(=O)Nc2nccnc2C(=O)NCc2ccc(Br)cc2)cc1`: 1010 s. The same measure for `C=CCn1c(=O)c2sc(N(CC)CC)nc2n(CC(=O)Nc2c(C)cccc2C)c1=O`: 830 s; for `Cc1ccc(-c2nnc(CC(=O)NC(C)CCc3ccccc3)o2)cc1` (stereo not given): 840 s; for `Cc1nc(CC(=O)NCc2ccc(F)cc2F)sc1C(=O)NCC(C)C`: 757 s. Turning to `CCn1nccc1-c1cccc(-c2noc(CNC(=O)Cc3ccc(Cl)cc3)n2)c1`, the RP-LC retention time amounted to 922 s. The figure for `Cc1ccc(Nc2nc(-c3ccc(C)c(C)c3)cs2)nc1` is 859 s; for `CCOC(=O)c1sc(NC(=O)c2cc(C)n(C)n2)nc1-c1ccccc1` it is 928 s. The same measure for `CCc1noc(NC(C)=O)c1-c1ccc(C)c(S(=O)(=O)Nc2cc(C)cc(C)c2)c1`: 885 s; for `Cc1noc(C)c1-c1ccc(S(=O)(=O)NCc2ccc(Cl)cc2)cc1`: 969 s.
